Data taken from the NIST ThermoML archive (doi:10.1021/je0603067).
± gives the expanded uncertainty stated by the source.

Settings: Crystal; Heating/Cooling curves

| Structure (SMILES) | Triple point temperature [K] |
| --- | --- |
| FC(F)C(F)(F)F [pentafluoroethane] | 173.05 ± 0.2 |
| O=C=O [carbon dioxide] | 216.56 ± 0.2 |
| [N-]=[N+]=O [nitrous oxide] | 181.99 ± 0.2 |
